Consider eleven compounds from ChEMBL document CHEMBL6182872, “Synthesis of Benzo[h]quinoline derivatives and evaluation of their insecticidal activity against Culex pipiens L. larvae” (Eur J Med Chem, 2025).

What is called LC50 is the concentration lethal to half of the exposed cells or organisms. A high value points to lower toxicity.

In brackets after ≈: the same amount, converted by molar mass.

This test has as its system Culex pipiens. In words: Toxicity in Culex pipiens at third larval instar measured after 24 hrs. Type of test: organism-based.

Compound `CCCCCCCCCCCC(=O)NN1C(=O)/C(=C/c2cc3ccc4ccccc4c3nc2Cl)C=C1c1ccc(C)cc1` yielded an LC50 of 0.4 µg/mL (≈ 0.673 µM). Then `CC(=O)NN1C(=O)/C(=C/c2cc3ccc4ccccc4c3nc2Cl)C=C1c1ccc(C)cc1`, with 97.5 µg/mL (≈ 215 µM); and `COc1ccc(/C=N/NC(=O)/C(=C/c2cc3ccc4ccccc4c3nc2Cl)CC(=O)c2ccc(C)cc2)cc1OC`, with 202 µg/mL (≈ 349 µM); and `Cc1ccc(C(=O)C/C(=C\c2cc3ccc4ccccc4c3nc2Cl)C(=O)NN)cc1`, with 86.4 µg/mL (≈ 201 µM).

Compound `Cc1ccc(C2=C/C(=C\c3cc4ccc5ccccc5c4nc3Cl)C(=O)N2NC(=O)CCl)cc1` came in with an LC50 of 23.9 µg/mL (≈ 48.9 µM).

Turning to `CCOP(=S)(OCC)Oc1nc(Cl)c(Cl)cc1Cl` [CHLORPYRIFOS], the LC50 was found to be 272 µg/mL (≈ 776 µM). For `CC(=O)N(C(C)=O)N1C(=O)/C(=C/c2cc3ccc4ccccc4c3nc2Cl)C=C1c1ccc(C)cc1`, the LC50 is 329 µg/mL (≈ 663 µM).

For `CC(=O)NNC(=O)/C(=C/c1cc2ccc3ccccc3c2nc1Cl)CC(=O)c1ccc(C)cc1`, the LC50 was found to be 116 µg/mL (≈ 245 µM). Then `Cc1ccc(C(=O)C/C(=C\c2cc3ccc4ccccc4c3nc2Cl)C(=O)N/N=C/c2ccccc2O)cc1`, with 29.3 µg/mL (≈ 54.9 µM); and `Cc1ccc(C(=O)C/C(=C\c2cc3ccc4ccccc4c3nc2Cl)C(=O)NNC(=O)CCC(=O)NNC(=O)/C(=C/c2cc3ccc4ccccc4c3nc2Cl)CC(=O)c2ccc(C)cc2)cc1`, with 136 µg/mL (≈ 144 µM). The same measure for `Cc1ccc(C2=C/C(=C\c3cc4ccc5ccccc5c4nc3Cl)C(=O)N2NC(=O)c2ccccc2)cc1`: 4.9 µg/mL (≈ 9.5 µM).
